Measured values as given in ChEMBL document CHEMBL1671734, “An ertapenem-resistant extended-spectrum-beta-lactamase-producing Klebsiella pneumoniae clone carries a novel OmpK36 porin variant” (2010).
Converted amounts (≈) assume the structure as drawn.

Key:
Type in all cases: functional
Klebsiella pneumoniae [1] = test: Antimicrobial activity against ESBL-positive Klebsiella pneumoniae 71697 harboring porin OmpK36V mutant gene by microdilution method
Klebsiella pneumoniae [2] = test: Antimicrobial activity against ESBL-positive Klebsiella pneumoniae 69928 harboring porin OmpK36V mutant gene by microdilution method
Klebsiella pneumoniae [3] = test: Antimicrobial activity against ESBL-positive Klebsiella pneumoniae 69036 harboring porin OmpK36V mutant gene by microdilution method
Klebsiella pneumoniae [4] = test: Antimicrobial activity against ESBL-positive Klebsiella pneumoniae 50748 harboring porin OmpK36 gene by microdilution method
Klebsiella pneumoniae [5] = test: Antimicrobial activity against ESBL-positive Klebsiella pneumoniae 18260 harboring pSHA2-encoded porin OmpK36 gene by microdilution method
Klebsiella pneumoniae [6] = test: Antimicrobial activity against ESBL-positive Klebsiella pneumoniae 17829 harboring pSHA2-encoded porin OmpK36 gene by microdilution method
Klebsiella pneumoniae [7] = test: Antimicrobial activity against ESBL-positive Klebsiella pneumoniae 19039 harboring porin OmpK36V mutant gene by microdilution method
Klebsiella pneumoniae [8] = test: Antimicrobial activity against ESBL-positive Klebsiella pneumoniae 18918 harboring porin OmpK36V mutant gene by microdilution method
Klebsiella pneumoniae [9] = test: Antimicrobial activity against ESBL-positive Klebsiella pneumoniae 18567 harboring porin OmpK36V mutant gene by microdilution method
Klebsiella pneumoniae [10] = test: Antimicrobial activity against ESBL-positive Klebsiella pneumoniae 18260 by microdilution method
Klebsiella pneumoniae [11] = test: Antimicrobial activity against ESBL-positive Klebsiella pneumoniae 17834 harboring porin OmpK36V mutant gene by microdilution method
Klebsiella pneumoniae [12] = test: Antimicrobial activity against ESBL-positive Klebsiella pneumoniae 17830 harboring porin OmpK36V mutant gene by microdilution method
Klebsiella pneumoniae [13] = test: Antimicrobial activity against ESBL-positive Klebsiella pneumoniae 17829 by microdilution method
Klebsiella pneumoniae [14] = test: Antimicrobial activity against ESBL-positive Klebsiella pneumoniae 17049 harboring porin OmpK36V mutant gene by microdilution method
Klebsiella pneumoniae [15] = test: Antimicrobial activity against ESBL-positive Klebsiella pneumoniae 16855 harboring porin OmpK36 and OmpK35 genes by Etest by microdilution method
Klebsiella pneumoniae [16] = test: Antimicrobial activity against ESBL-positive Klebsiella pneumoniae 6267 harboring porin OmpK36V mutant gene by microdilution method
Klebsiella pneumoniae [17] = test: Antimicrobial activity against ESBL-positive Klebsiella pneumoniae 11932 harboring porin OmpK36 gene by microdilution method
Klebsiella pneumoniae [18] = test: Antimicrobial activity against ESBL-positive Klebsiella pneumoniae 16830 harboring porin OmpK36 gene by microdilution method
Klebsiella pneumoniae [19] = test: Antimicrobial activity against ESBL-positive Klebsiella pneumoniae 25008 by microdilution method
Klebsiella pneumoniae [20] = test: Antimicrobial activity against ESBL-positive Klebsiella pneumoniae 26077 harboring porin OmpK36V mutant gene by microdilution method
Klebsiella pneumoniae [21] = test: Antimicrobial activity against ESBL-positive Klebsiella pneumoniae 287942 harboring porin OmpK36 gene by microdilution method
Klebsiella pneumoniae [22] = test: Antimicrobial activity against ESBL-positive Klebsiella pneumoniae 29459 harboring porin OmpK36 gene by microdilution method
Klebsiella pneumoniae [23] = test: Antimicrobial activity against ESBL-positive Klebsiella pneumoniae 29830 harboring porin OmpK36V mutant gene by microdilution method
Klebsiella pneumoniae [24] = test: Antimicrobial activity against ESBL-negative Klebsiella pneumoniae 299332 harboring porin OmpK36 gene by microdilution method
Klebsiella pneumoniae [25] = test: Antimicrobial activity against ESBL-negative Klebsiella pneumoniae 30018 harboring porin OmpK35 gene by microdilution method
Klebsiella pneumoniae [26] = test: Antimicrobial activity against ESBL-positive Klebsiella pneumoniae 31750 harboring porin OmpK36 gene by microdilution method
Klebsiella pneumoniae [27] = test: Antimicrobial activity against ESBL-positive Klebsiella pneumoniae 71697 harboring porin OmpK36V mutant gene by Etest in presence of Tazobactam
Klebsiella pneumoniae [28] = test: Antimicrobial activity against ESBL-positive Klebsiella pneumoniae 69928 harboring porin OmpK36V mutant gene by Etest in presence of Tazobactam
Klebsiella pneumoniae [29] = test: Antimicrobial activity against ESBL-positive Klebsiella pneumoniae 69036 harboring porin OmpK36V mutant gene by Etest in presence of Tazobactam
Klebsiella pneumoniae [30] = test: Antimicrobial activity against ESBL-positive Klebsiella pneumoniae 50748 harboring porin OmpK36 gene by Etest in presence of Tazobactam
Klebsiella pneumoniae [31] = test: Antimicrobial activity against ESBL-positive Klebsiella pneumoniae 19039 harboring porin OmpK36V mutant gene by Etest in presence of Tazobactam
Klebsiella pneumoniae [32] = test: Antimicrobial activity against ESBL-positive Klebsiella pneumoniae 18918 harboring porin OmpK36V mutant gene by Etest in presence of Tazobactam
Klebsiella pneumoniae [33] = test: Antimicrobial activity against ESBL-positive Klebsiella pneumoniae 18567 harboring porin OmpK36V mutant gene by Etest in presence of Tazobactam
Klebsiella pneumoniae [34] = test: Antimicrobial activity against ESBL-positive Klebsiella pneumoniae 18260 by Etest in presence of Tazobactam
Klebsiella pneumoniae [35] = test: Antimicrobial activity against ESBL-positive Klebsiella pneumoniae 17834 harboring porin OmpK36V mutant gene by Etest in presence of Tazobactam
Klebsiella pneumoniae [36] = test: Antimicrobial activity against ESBL-positive Klebsiella pneumoniae 17830 harboring porin OmpK36V mutant gene by Etest in presence of Tazobactam
Klebsiella pneumoniae [37] = test: Antimicrobial activity against ESBL-positive Klebsiella pneumoniae 17829 by Etest in presence of Tazobactam
Klebsiella pneumoniae [38] = test: Antimicrobial activity against ESBL-positive Klebsiella pneumoniae 17049 harboring porin OmpK36V mutant gene by Etest in presence of Tazobactam
Klebsiella pneumoniae [39] = test: Antimicrobial activity against ESBL-positive Klebsiella pneumoniae 16855 harboring porin OmpK36 and OmpK35 genes by Etest in presence of Tazobactam
Klebsiella pneumoniae [40] = test: Antimicrobial activity against ESBL-positive Klebsiella pneumoniae 6267 harboring porin OmpK36V mutant gene by Etest in presence of Tazobactam
Klebsiella pneumoniae [41] = test: Antimicrobial activity against ESBL-positive Klebsiella pneumoniae 11932 harboring porin OmpK36 gene by Etest in presence of Tazobactam
Klebsiella pneumoniae [42] = test: Antimicrobial activity against ESBL-positive Klebsiella pneumoniae 16830 harboring porin OmpK36 gene by Etest in presence of Tazobactam
Klebsiella pneumoniae [43] = test: Antimicrobial activity against ESBL-positive Klebsiella pneumoniae 25008 by Etest in presence of Tazobactam
Klebsiella pneumoniae [44] = test: Antimicrobial activity against ESBL-positive Klebsiella pneumoniae 26077 harboring porin OmpK36V mutant gene by Etest in presence of Tazobactam
Klebsiella pneumoniae [45] = test: Antimicrobial activity against ESBL-positive Klebsiella pneumoniae 287942 harboring porin OmpK36 gene by Etest in presence of Tazobactam
Klebsiella pneumoniae [46] = test: Antimicrobial activity against ESBL-positive Klebsiella pneumoniae 29459 harboring porin OmpK36 gene by Etest in presence of Tazobactam
Klebsiella pneumoniae [47] = test: Antimicrobial activity against ESBL-positive Klebsiella pneumoniae 29830 harboring porin OmpK36V mutant gene by Etest in presence of Tazobactam
Klebsiella pneumoniae [48] = test: Antimicrobial activity against ESBL-negative Klebsiella pneumoniae 299332 harboring porin OmpK36 gene by Etest in presence of Tazobactam
Klebsiella pneumoniae [49] = test: Antimicrobial activity against ESBL-negative Klebsiella pneumoniae 30018 harboring porin OmpK35 gene by Etest in presence of Tazobactam
Klebsiella pneumoniae [50] = test: Antimicrobial activity against ESBL-positive Klebsiella pneumoniae 31750 harboring porin OmpK36 gene by Etest in presence of Tazobactam

`C[C@@H](O)[C@H]1C(=O)N2C(C(=O)O)=C(S[C@@H]3CN[C@H](C(=O)Nc4cccc(C(=O)O)c4)C3)[C@H](C)[C@H]12` [ERTAPENEM] showed an MIC (Klebsiella pneumoniae [1]) of 8 µg/mL (≈ 16.8 µM), an MIC (Klebsiella pneumoniae [2]) of 6 µg/mL (≈ 12.6 µM) and an MIC (Klebsiella pneumoniae [3]) of 6 µg/mL (≈ 12.6 µM). The MIC (Klebsiella pneumoniae [4]) was 0.25 µg/mL (≈ 0.526 µM), the MIC (Klebsiella pneumoniae [5]) was 16 µg/mL (≈ 33.6 µM) and the MIC (Klebsiella pneumoniae [6]) was 16 µg/mL (≈ 33.6 µM). It also gave an MIC (Klebsiella pneumoniae [7]) of 8 µg/mL (≈ 16.8 µM), an MIC (Klebsiella pneumoniae [8]) of 8 µg/mL (≈ 16.8 µM) and an MIC (Klebsiella pneumoniae [9]) of 6 µg/mL (≈ 12.6 µM). The MIC (Klebsiella pneumoniae [10]) was 128 µg/mL (≈ 269 µM), the MIC (Klebsiella pneumoniae [11]) was 6 µg/mL (≈ 12.6 µM) and the MIC (Klebsiella pneumoniae [12]) was 8 µg/mL (≈ 16.8 µM). It also gave an MIC (Klebsiella pneumoniae [13]) of 128 µg/mL (≈ 269 µM), an MIC (Klebsiella pneumoniae [14]) of 8 µg/mL (≈ 16.8 µM) and an MIC (Klebsiella pneumoniae [15]) of 0.094 µg/mL (≈ 0.198 µM). It also gave an MIC (Klebsiella pneumoniae [16]) of 4 µg/mL (≈ 8.41 µM), an MIC (Klebsiella pneumoniae [17]) of 0.19 µg/mL (≈ 0.4 µM) and an MIC (Klebsiella pneumoniae [18]) of 0.125 µg/mL (≈ 0.263 µM). It also gave an MIC (Klebsiella pneumoniae [19]) of 16 µg/mL (≈ 33.6 µM), an MIC (Klebsiella pneumoniae [20]) of 6 µg/mL (≈ 12.6 µM) and an MIC (Klebsiella pneumoniae [21]) of 0.19 µg/mL (≈ 0.4 µM). For the same compound, the MIC (Klebsiella pneumoniae [22]) was 0.25 µg/mL (≈ 0.526 µM), the MIC (Klebsiella pneumoniae [23]) was 6 µg/mL (≈ 12.6 µM) and the MIC (Klebsiella pneumoniae [24]) was 0.016 µg/mL (≈ 0.0336 µM). For the same compound, the MIC (Klebsiella pneumoniae [25]) was 0.023 µg/mL (≈ 0.0484 µM) and the MIC (Klebsiella pneumoniae [26]) was 0.125 µg/mL (≈ 0.263 µM).

For `CCN1CCN(C(=O)N[C@@H](C(=O)N[C@@H]2C(=O)N3[C@@H]2SC(C)(C)[C@@H]3C(=O)O)c2ccccc2)C(=O)C1=O` [PIPERACILLIN], the MIC (Klebsiella pneumoniae [27]) was over 256 µg/mL, the MIC (Klebsiella pneumoniae [28]) was over 256 µg/mL and the MIC (Klebsiella pneumoniae [29]) was over 256 µg/mL. It also gave an MIC (Klebsiella pneumoniae [30]) of 12 µg/mL, an MIC (Klebsiella pneumoniae [31]) of over 256 µg/mL and an MIC (Klebsiella pneumoniae [32]) of over 256 µg/mL. The MIC (Klebsiella pneumoniae [33]) was over 256 µg/mL, the MIC (Klebsiella pneumoniae [34]) was over 256 µg/mL and the MIC (Klebsiella pneumoniae [35]) was over 256 µg/mL. It also gave an MIC (Klebsiella pneumoniae [36]) of over 256 µg/mL, an MIC (Klebsiella pneumoniae [37]) of over 256 µg/mL and an MIC (Klebsiella pneumoniae [38]) of over 256 µg/mL. For the same compound, the MIC (Klebsiella pneumoniae [39]) was 32 µg/mL, the MIC (Klebsiella pneumoniae [40]) was 12 µg/mL and the MIC (Klebsiella pneumoniae [41]) was over 256 µg/mL. It also gave an MIC (Klebsiella pneumoniae [42]) of 16 µg/mL, an MIC (Klebsiella pneumoniae [43]) of over 256 µg/mL and an MIC (Klebsiella pneumoniae [44]) of over 256 µg/mL. For the same compound, the MIC (Klebsiella pneumoniae [45]) was over 256 µg/mL, the MIC (Klebsiella pneumoniae [46]) was over 256 µg/mL and the MIC (Klebsiella pneumoniae [47]) was over 256 µg/mL. For the same compound, the MIC (Klebsiella pneumoniae [48]) was 6 µg/mL, the MIC (Klebsiella pneumoniae [49]) was 3 µg/mL and the MIC (Klebsiella pneumoniae [50]) was 8 µg/mL.
